Results taken from patent US20240216317A1, “COMPOSITION FOR PREVENTING, AMELIORATING OR TREATING INFLAMMATORY BOWEL DISEASE COMPRISING COMPOUND ISOLATED FROM ISODON EXCISUS AS EFFECTIVE COMPONENT” (HEALINNOLS INC., priority 2022, published 2024).

Biological target: T1, RIPK2 (Homo sapiens, UniProt O43353)
T1 construct: Caco-2 cells were dissolved by adding buffer solution for degradation; endogenous in cells; host or cells: Caco-2
Test: Inhibitory activity on RIPK2 phosphorylation using Western blot in Caco-2 cells
Format: cell-based
Details: FIG. 1
Experimental: Caco-2 cells were adjusted to have density of 2×10^5 cells/ml. Suspension of the cells (0.5 ml) was aliquoted in apical side membrane phase of a transwell insert 12-well plate. To the basolateral side phase, 1.5 ml of culture medium were added. While replacing the medium with fresh one, once per 2 or 3 days, culture was continued for 21 days approximately, i.e., till to have cell division and suitable TEER (transepithelial electrical resistance) value of monolayer.
For measuring the electric resistance (TEER value, Ω·cm^2) between the apical side and basolateral side, EVOM resistance meter (EVOM2, WPI) was employed.
Once the TEER value of Caco-2 cells is 200 Ω·cm^2 or higher, MDP inside the insert was treated for 24 hours with the compound represented by Chemical formula 1 of the present invention. After washing Caco-2 cells inside the insert with 1×PBS, they were treated with trypsin. After centrifuge and washing with cold 1×PBS, Caco-2 cells were dissolved by adding buffer solution for degradation (50 mM Tris-HCl (pH 8.0), 5 mM EDTA, 15 mM NaCl, 1% NP-40, 1 mM PMSF) followed by centrifuge for 20 minutes at 12,000 rpm, 4° C. Only the supernatant was then collected and protein quantification was carried out by using BCA protein assay kit. […]

T1 sequence (O43353 whole entry): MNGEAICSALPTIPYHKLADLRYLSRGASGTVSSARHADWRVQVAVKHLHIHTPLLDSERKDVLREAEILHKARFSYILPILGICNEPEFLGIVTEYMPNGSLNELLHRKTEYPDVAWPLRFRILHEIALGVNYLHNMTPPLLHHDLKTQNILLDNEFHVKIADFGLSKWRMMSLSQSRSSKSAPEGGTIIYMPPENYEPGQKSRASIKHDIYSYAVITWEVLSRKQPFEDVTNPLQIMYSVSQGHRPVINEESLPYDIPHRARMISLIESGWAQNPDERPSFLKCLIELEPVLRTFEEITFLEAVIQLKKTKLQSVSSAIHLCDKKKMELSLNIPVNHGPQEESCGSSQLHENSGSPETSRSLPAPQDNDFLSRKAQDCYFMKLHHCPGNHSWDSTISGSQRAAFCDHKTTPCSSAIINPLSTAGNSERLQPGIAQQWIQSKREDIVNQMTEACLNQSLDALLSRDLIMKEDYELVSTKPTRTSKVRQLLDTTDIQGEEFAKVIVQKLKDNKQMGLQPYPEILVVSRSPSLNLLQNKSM

inhibitory activity on RIPK2 phosphorylation relative to gefitinib (positive control): at least 2 times
inhibition of activation of RIPK2 (phosphorylation) (MDP, 24 hours treatment): can inhibit the activation of RIPK2
SMILES: COC(=O)C[C@H](OC(=O)/C=C/c1ccc(O)c(O)c1)c1ccc(O)c(O)c1 [Compound 1, 3-[3,4-dihydroxyphenyl]acrylic acid 1-[3,4-dihydroxyphenyl]-2-methoxycarbonylethyl ester]
